According to PMC10023787, “Trio-pharmacophore DNA-encoded chemical library for simultaneous selection of fragments and linkers” (Nature Communications, 2023):
Where two headings read alike, the source gives them in different places. One block for each compound: values may come before it.

Key:
[1] = biological target: T1, MMP-2 (Homo sapiens, UniProt P08253); experiment: MMP-2 inhibition assay (fluorogenic peptide substrate); format: biochemical; conditions: for IC50: n.d: not detected
T1 construct: purchased Sino Biological 10082-HNAH
T1 sequence (P08253 110-660): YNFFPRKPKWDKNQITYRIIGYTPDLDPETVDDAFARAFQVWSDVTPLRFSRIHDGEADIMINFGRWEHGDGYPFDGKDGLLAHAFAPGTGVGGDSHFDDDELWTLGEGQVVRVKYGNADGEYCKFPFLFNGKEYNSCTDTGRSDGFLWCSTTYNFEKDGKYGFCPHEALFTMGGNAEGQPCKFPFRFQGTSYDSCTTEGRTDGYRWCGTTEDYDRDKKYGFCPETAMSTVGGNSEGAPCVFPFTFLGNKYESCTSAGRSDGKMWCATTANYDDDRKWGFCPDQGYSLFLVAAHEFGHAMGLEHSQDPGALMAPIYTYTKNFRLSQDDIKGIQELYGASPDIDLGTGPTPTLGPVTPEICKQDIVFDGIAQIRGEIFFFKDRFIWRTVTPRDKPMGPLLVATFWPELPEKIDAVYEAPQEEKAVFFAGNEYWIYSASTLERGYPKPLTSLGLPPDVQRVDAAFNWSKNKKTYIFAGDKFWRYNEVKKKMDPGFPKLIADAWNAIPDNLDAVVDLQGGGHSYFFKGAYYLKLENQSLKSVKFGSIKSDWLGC
How it was run: (§1)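 Hydrolysis of DNP-Pro-Leu-Gly-Met-Trp-Ser-Arg (25 μM final) was tracked kinetically at em 360 nm over 30 min. Enzymes, APMA-activated and at 10 nM (MMP-9) or 6.5 nM (MMP-2) final, sat 30 min at RT with inhibitor in pH 7.5 Tris buffer with CaCl2 and Brij 35 first. Logistic fitting of Vmax against concentration gave IC50, in triplicate.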

[2] = biological target: T2, MMP-9 (Homo sapiens, UniProt P14780); experiment: MMP-9 inhibition assay (fluorogenic peptide substrate); format: biochemical; parameters: remaining enzyme activity (% of control): scale not given here
T2 construct: purchased Sino Biological 10327-HNAH
How it was run: as §1

[3] = Figure 5d, fragment combination joined by linker, read-out: MMP2 IC50
[4] = Figure 5d; fragment combination joined by linker; n.d: not detected; read-out: MMP9 IC50
[5] = mean ± SE, Fig. 5d unit inferred, µM, read-out: IC50
[6] = mean ± SE; n.d: not detected; Fig. 5e prints no unit, µM; read-out: IC50

T2 sequence (P14780 107-707 limits assumed): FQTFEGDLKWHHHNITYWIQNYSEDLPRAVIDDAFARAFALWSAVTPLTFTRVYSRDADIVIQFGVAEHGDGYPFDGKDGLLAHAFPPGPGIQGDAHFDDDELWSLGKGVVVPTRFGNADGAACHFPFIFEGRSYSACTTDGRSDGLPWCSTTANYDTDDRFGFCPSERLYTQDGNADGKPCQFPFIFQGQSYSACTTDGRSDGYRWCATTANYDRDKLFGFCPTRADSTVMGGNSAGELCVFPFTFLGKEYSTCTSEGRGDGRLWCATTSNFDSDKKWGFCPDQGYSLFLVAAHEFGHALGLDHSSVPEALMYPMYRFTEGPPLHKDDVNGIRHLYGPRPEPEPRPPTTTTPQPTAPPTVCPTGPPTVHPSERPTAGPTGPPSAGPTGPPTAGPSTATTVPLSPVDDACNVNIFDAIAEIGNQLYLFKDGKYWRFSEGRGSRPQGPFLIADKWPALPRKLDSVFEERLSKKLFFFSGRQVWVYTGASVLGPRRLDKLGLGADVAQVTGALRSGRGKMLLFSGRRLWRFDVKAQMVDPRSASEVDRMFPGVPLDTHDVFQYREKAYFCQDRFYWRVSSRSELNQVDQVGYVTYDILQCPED

SMILES: O=C(Cn1cnc2c(oc3ccccc32)c1=O)NCCCCCCCCNC(=O)c1cncc(O)c1 [182_828 4]
IC50 [1, 3]: 188 µM | IC50 [2, 4]: 233 µM

SMILES: O=C(Cn1cnc2c(oc3ccccc32)c1=O)NCCCCCCCCNC(=O)c1cncc(O)c1 [182+828 Linker 4]
remaining activity (%) ([1]; MMP-2, concentration 0.0078 µM): 107.56 | remaining activity (%) ([1]; MMP-2, concentration 0.20 µM): 99.59 | remaining activity (%) ([1]; MMP-2, concentration 0.98 µM): 97.94 | remaining activity (%) ([1]; MMP-2, concentration 4.88 µM): 101.19 | remaining activity (%) ([1]; MMP-2, concentration 24.38 µM): 85.36 | remaining activity (%) ([1]; MMP-2, concentration 121.90 µM): 64.62 | remaining activity (%) ([1]; MMP-2, concentration 609.50 µM): 31.91 | remaining activity (%) ([1]; MMP-2, concentration 0.04 µM): 116.92 | IC50 [1, 5]: 188 ± 25.7 µM | remaining enzyme activity (% of control) ([2]; MMP-9, concentration 0.08 µM): 90.17 | remaining enzyme activity (% of control) ([2]; MMP-9, concentration 0.39 µM): 88.39 | remaining enzyme activity (% of control) ([2]; MMP-9, concentration 1.95 µM): 91.84 | remaining enzyme activity (% of control) ([2]; MMP-9, concentration 9.75 µM): 88.91 | remaining enzyme activity (% of control) ([2]; MMP-9, concentration 48.76 µM): 78.10 | remaining enzyme activity (% of control) ([2]; MMP-9, concentration 243.80 µM): 49.14 | remaining enzyme activity (% of control) ([2]; MMP-9, concentration 1219.00 µM): 0.00 | IC50 [2, 6]: 233 ± 38.3 µM

SMILES: Cc1cc(=O)[nH]c(-n2nc(C)c(CCC(=O)NCCSCC(=O)NCc3c[nH]nn3)c2C)n1 [693+787 Linker 24]
remaining activity (%) ([1]; MMP-2, concentration 0.0156 µM): 88.74 | remaining activity (%) ([1]; MMP-2, concentration 0.08 µM): 98.28 | remaining activity (%) ([1]; MMP-2, concentration 0.39 µM): 98.89 | remaining activity (%) ([1]; MMP-2, concentration 1.95 µM): 81.72 | remaining activity (%) ([1]; MMP-2, concentration 9.75 µM): 92.63 | remaining activity (%) ([1]; MMP-2, concentration 48.76 µM): 69.73 | remaining activity (%) ([1]; MMP-2, concentration 243.80 µM): 36.49 | remaining activity (%) ([1]; MMP-2, concentration 1219.00 µM): 2.36 | IC50 [1, 5]: 149 ± 25.1 µM | remaining enzyme activity (% of control) ([2]; MMP-9; concentration 0.08 µM): 94.26 | remaining enzyme activity (% of control) ([2]; MMP-9; concentration 0.39 µM): 97.78 | remaining enzyme activity (% of control) ([2]; MMP-9; concentration 1.95 µM): 91.22 | remaining enzyme activity (% of control) ([2]; MMP-9; concentration 9.75 µM): 96.92 | remaining enzyme activity (% of control) ([2]; MMP-9; concentration 48.76 µM): 92.11 | remaining enzyme activity (% of control) ([2]; MMP-9; concentration 243.80 µM): 57.21 | remaining enzyme activity (% of control) ([2]; MMP-9; concentration 1219.00 µM): 9.75 | IC50 [2, 6]: 270 ± 31.4 µM

SMILES: Cc1cc(=O)[nH]c(-n2nc(C)c(CCC(=O)NCCCCCCCCNC(=O)c3cncc(O)c3)c2C)n1 [693_828 4]
IC50 [1, 3]: 212 µM | IC50 [2, 4]: 261 µM

More lines, in order of falling IC50 [1, 3], values ahead:

IC50 [1, 3]: 186 µM | IC50 [2, 4]: 201 µM
SMILES: Cc1cc(=O)[nH]c(-n2nc(C)c(CCC(=O)NCCOCCOCCNC(=O)c3cncc(O)c3)c2C)n1 [693_828 10]

IC50 [1, 3]: 110 µM | IC50 [2, 4]: 232 µM
SMILES: Cc1cc(=O)[nH]c(-n2nc(C)c(CCC(=O)NCCNC(=O)c3cncc(O)c3)c2C)n1 [693_828 1]

IC50 [1, 3]: 95.5 µM | IC50 [2, 4]: 143 µM
SMILES: O=C(Cn1cnc2c(oc3ccccc32)c1=O)NCc1c[nH]nn1 [182_787 1]

IC50 [1, 3]: 62.3 µM | IC50 [2, 4]: 131 µM
SMILES: Cn1c(O)nc2cc(C(=O)NCCCCC=CC(=O)CC(=O)NCCNC(=O)Cn3cnc4c(oc5ccccc54)c3=O)cnc21 [182_826 12]
